Test results published in patent publication US10681909B2, “Herbicidal triazoles” (FMC Corporation, priority 2014, dated 2020).

Experiments:
barnyardgrass [1] = assay: Test A preemergence; type: in vivo, Echinochloa crus-galli; details: Echinochloa crus-galli, pre-emergence, 240 h, 0 to 100 scale (0 no effect, 100 complete control), read-out: Plant response rating, Barnyardgrass
Summary of the method: (§1)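 Test chemicals in a non-phytotoxic solvent with surfactant were applied as a directed soil spray preemergence to seeds sown in loam/sand. Postemergence sprays went to plants 2–10 cm tall at the one- to two-leaf stage. A dash means no result.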

foxtail, giant [2] = assay: Test A preemergence; type: in vivo, Setaria faberii; details: Setaria faberi, pre-emergence, 240 h, 0 to 100 scale (0 no effect, 100 complete control), read-out: Plant response rating, Foxtail, Giant
Summary of the method: as §1

pigweed [3] = assay: Test A preemergence; type: in vivo, Amaranthus retroflexus; details: Amaranthus retroflexus, pre-emergence, 240 h, 0 to 100 scale (0 no effect, 100 complete control), read-out: Plant response rating, Pigweed
Summary of the method: as §1

barnyardgrass [4] = assay: Test A postemergence; type: in vivo, Echinochloa crus-galli; details: Echinochloa crus-galli, post-emergence, 240 h, 0 to 100 scale (0 no effect, 100 complete control), approx. 10 d, read-out: Plant response rating, Barnyardgrass
Summary of the method: as §1

foxtail, giant [5] = assay: Test A postemergence; type: in vivo, Setaria faberii; details: Setaria faberi, post-emergence, 240 h, 0 to 100 scale (0 no effect, 100 complete control), approx. 10 d, read-out: Plant response rating, Foxtail, Giant
Summary of the method: as §1

pigweed [6] = assay: Test A postemergence; type: in vivo, Amaranthus retroflexus; details: Amaranthus retroflexus, post-emergence, 240 h, 0 to 100 scale (0 no effect, 100 complete control), approx. 10 d, read-out: Plant response rating, Pigweed
Summary of the method: as §1

wheat = assay: Test A postemergence; type: in vivo, Triticum aestivum; details: Triticum aestivum, post-emergence, 240 h, 0 to 100 scale (0 no effect, 100 complete control), approx. 10 d, read-out: Plant response rating, Wheat
Summary of the method: as §1

corn [7] = assay: Test A postemergence; type: in vivo, Zea mays; details: Zea mays, post-emergence, 240 h, 0 to 100 scale (0 no effect, 100 complete control), approx. 10 d
Summary of the method: as §1

rice = assay: Test B flooded paddy test; type: in vivo, Oryza sativa; details: Oryza sativa, 360 h, 125 g ai/ha, applied to paddy water at 2-leaf stage, visual rating after 13 to 15 d, scale 0 (no effect) to 100 (complete control), read-out: Plant response rating, Rice, Flood
Summary of the method: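 Pots were flooded to 3 cm above the soil at treatment, and compounds were applied directly into the paddy water. That depth was held throughout. After 13 to 15 d in a greenhouse, plants were rated visually against untreated controls.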

ryegrass, Italian = assay: Test C postemergence; type: in vivo, Lolium multiflorum
Summary of the method: (§2)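 Pre: seeded into loam/sand, sprayed same time. Post: plants in peat moss–vermiculite mix with starter nutrients and dolomitic limestone, treated at 1- to 4-leaf stage (2 to 18 cm). Formulation: non-phytotoxic solvent blend plus surfactant.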

wheat (winter wheat) = assay: Test C postemergence; type: in vivo, Triticum aestivum
Summary of the method: as §2

galium = assay: Test C postemergence; type: in vivo, Galium aparine
Summary of the method: as §2

corn [8] = assay: Test C postemergence; type: in vivo, Zea mays
Summary of the method: as §2

crabgrass, large = assay: Test C postemergence; type: in vivo, Digitaria sanguinalis
Summary of the method: as §2

lambsquarters = assay: Test C postemergence; type: in vivo, Chenopodium album
Summary of the method: as §2

nutsedge, yellow = assay: Test C postemergence; type: in vivo, Cyperus esculentus
Summary of the method: as §2

pigweed [9] = assay: Test C postemergence; type: in vivo, Amaranthus retroflexus
Summary of the method: as §2

soybean = assay: Test C postemergence; type: in vivo, Glycine max
Summary of the method: as §2

oilseed rape = assay: Test C postemergence; type: in vivo, Brassica napus
Summary of the method: as §2

waterhemp = assay: Test C postemergence; type: in vivo, Amaranthus rudis
Summary of the method: as §2

velvetleaf = assay: Test C postemergence; type: in vivo, Abutilon theophrasti
Summary of the method: as §2

## CCc1nc(-c2ccc(C(F)(F)F)cc2)nn1Cc1ccnc(C(F)(F)F)c1 [Compound 1, 4-[[5-ethyl-3-[4-(trifluoromethyl)phenyl]-1H-1,2,4-triazol-1-yl]methyl]-2-(trifluoromethyl)pyridine]
Barnyardgrass [1]; 125 g ai/ha
  pest or weed control at 125 g/ha: 80%
Barnyardgrass [1]; 500 g ai/ha, approx. 10 d
  pest or weed control at 500 g/ha: 90%
foxtail, giant [2]; 125 g ai/ha
  pest or weed control at 125 g/ha: 100%
foxtail, giant [2]; 500 g ai/ha, approx. 10 d
  pest or weed control at 500 g/ha: 100%
Pigweed [3]; 125 g ai/ha
  pest or weed control at 125 g/ha: 100%
Pigweed [3]; 500 g ai/ha, approx. 10 d
  pest or weed control at 500 g/ha: 100%
Barnyardgrass [4]; 125 g ai/ha
  pest or weed control at 125 g/ha: 80%
Barnyardgrass [4]; 500 g ai/ha
  pest or weed control at 500 g/ha: 90%
foxtail, giant [5]; 125 g ai/ha
  pest or weed control at 125 g/ha: 90%
foxtail, giant [5]; 500 g ai/ha
  pest or weed control at 500 g/ha: 100%
Pigweed [6]; 125 g ai/ha
  pest or weed control at 125 g/ha: 100%
Pigweed [6]; 500 g ai/ha
  pest or weed control at 500 g/ha: 100%
wheat; 125 g ai/ha
  plant injury at 125 g/ha: 30%
wheat; 500 g ai/ha
  plant injury at 500 g/ha: 60%
Corn [7]; 125 g ai/ha
  Corn plant response rating (crop injury, 0 = no effect, 100 = complete kill) at 125 g/ha: 30%
Corn [7]; 500 g ai/ha
  Corn plant response rating (crop injury, 0 = no effect, 100 = complete kill) at 500 g/ha: 80%
rice
  plant injury at 125 g/ha: 25%
ryegrass, Italian; 31 g ai/ha
  Plant response rating (scale of 0 to 100 where 0 is no effect and 100 is complete control): 5
ryegrass, Italian; 62 g ai/ha
  Plant response rating (scale of 0 to 100 where 0 is no effect and 100 is complete control): 5
ryegrass, Italian; 125 g ai/ha
  Plant response rating (scale of 0 to 100 where 0 is no effect and 100 is complete control): 5
ryegrass, Italian; 250 g ai/ha
  Plant response rating (scale of 0 to 100 where 0 is no effect and 100 is complete control): 5
Wheat (winter wheat); 31 g ai/ha
  Plant response rating (scale of 0 to 100 where 0 is no effect and 100 is complete control): 10
Wheat (winter wheat); 62 g ai/ha
  Plant response rating (scale of 0 to 100 where 0 is no effect and 100 is complete control): 10
Wheat (winter wheat); 125 g ai/ha
  Plant response rating (scale of 0 to 100 where 0 is no effect and 100 is complete control): 15
Wheat (winter wheat); 250 g ai/ha
  Plant response rating (scale of 0 to 100 where 0 is no effect and 100 is complete control): 20
galium; 31 g ai/ha
  Plant response rating (scale of 0 to 100 where 0 is no effect and 100 is complete control): 80
galium; 62 g ai/ha
  Plant response rating (scale of 0 to 100 where 0 is no effect and 100 is complete control): 80
galium; 125 g ai/ha
  Plant response rating (scale of 0 to 100 where 0 is no effect and 100 is complete control): 90
galium; 250 g ai/ha
  Plant response rating (scale of 0 to 100 where 0 is no effect and 100 is complete control): 90
Corn [8]; 31 g ai/ha
  Plant response rating (scale of 0 to 100 where 0 is no effect and 100 is complete control): 15
Corn [8]; 62 g ai/ha
  Plant response rating (scale of 0 to 100 where 0 is no effect and 100 is complete control): 15
Corn [8]; 125 g ai/ha
  Plant response rating (scale of 0 to 100 where 0 is no effect and 100 is complete control): 20
Corn [8]; 250 g ai/ha
  Plant response rating (scale of 0 to 100 where 0 is no effect and 100 is complete control): 20
crabgrass, large; 31 g ai/ha
  Plant response rating (scale of 0 to 100 where 0 is no effect and 100 is complete control): 5
crabgrass, large; 62 g ai/ha
  Plant response rating (scale of 0 to 100 where 0 is no effect and 100 is complete control): 5
crabgrass, large; 125 g ai/ha
  Plant response rating (scale of 0 to 100 where 0 is no effect and 100 is complete control): 45
crabgrass, large; 250 g ai/ha
  Plant response rating (scale of 0 to 100 where 0 is no effect and 100 is complete control): 45
lambsquarters; 31 g ai/ha
  Plant response rating (scale of 0 to 100 where 0 is no effect and 100 is complete control): 70
lambsquarters; 62 g ai/ha
  Plant response rating (scale of 0 to 100 where 0 is no effect and 100 is complete control): 70
lambsquarters; 125 g ai/ha
  Plant response rating (scale of 0 to 100 where 0 is no effect and 100 is complete control): 75
lambsquarters; 250 g ai/ha
  Plant response rating (scale of 0 to 100 where 0 is no effect and 100 is complete control): 80
nutsedge, yellow; 31 g ai/ha
  Plant response rating (scale of 0 to 100 where 0 is no effect and 100 is complete control): 5
nutsedge, yellow; 62 g ai/ha
  Plant response rating (scale of 0 to 100 where 0 is no effect and 100 is complete control): 5
nutsedge, yellow; 125 g ai/ha
  Plant response rating (scale of 0 to 100 where 0 is no effect and 100 is complete control): 5
nutsedge, yellow; 250 g ai/ha
  Plant response rating (scale of 0 to 100 where 0 is no effect and 100 is complete control): 10
Pigweed [9]; 31 g ai/ha
  Plant response rating (scale of 0 to 100 where 0 is no effect and 100 is complete control): 50
Pigweed [9]; 62 g ai/ha
  Plant response rating (scale of 0 to 100 where 0 is no effect and 100 is complete control): 98
Pigweed [9]; 125 g ai/ha
  Plant response rating (scale of 0 to 100 where 0 is no effect and 100 is complete control): 98
Pigweed [9]; 250 g ai/ha
  Plant response rating (scale of 0 to 100 where 0 is no effect and 100 is complete control): 100
soybean; 31 g ai/ha
  Plant response rating (scale of 0 to 100 where 0 is no effect and 100 is complete control): 20
soybean; 62 g ai/ha
  Plant response rating (scale of 0 to 100 where 0 is no effect and 100 is complete control): 35
soybean; 125 g ai/ha
  Plant response rating (scale of 0 to 100 where 0 is no effect and 100 is complete control): 50
soybean; 250 g ai/ha
  Plant response rating (scale of 0 to 100 where 0 is no effect and 100 is complete control): 50
Oilseed rape; Oilsee Rape, 250 g ai/ha
  Plant response rating (scale of 0 to 100 where 0 is no effect and 100 is complete control): 90
Oilseed rape; Oilseed Rape, 31 g ai/ha
  Plant response rating (scale of 0 to 100 where 0 is no effect and 100 is complete control): 50
Oilseed rape; Oilseed Rape, 62 g ai/ha
  Plant response rating (scale of 0 to 100 where 0 is no effect and 100 is complete control): 70
Oilseed rape; Oilseed Rape, 125 g ai/ha
  Plant response rating (scale of 0 to 100 where 0 is no effect and 100 is complete control): 80
waterhemp; 31 g ai/ha
  Plant response rating (scale of 0 to 100 where 0 is no effect and 100 is complete control): 85
waterhemp; 62 g ai/ha
  Plant response rating (scale of 0 to 100 where 0 is no effect and 100 is complete control): 85
waterhemp; 125 g ai/ha
  Plant response rating (scale of 0 to 100 where 0 is no effect and 100 is complete control): 90
waterhemp; 250 g ai/ha
  Plant response rating (scale of 0 to 100 where 0 is no effect and 100 is complete control): 90
velvetleaf; 31 g ai/ha
  Plant response rating (scale of 0 to 100 where 0 is no effect and 100 is complete control): 40
velvetleaf; 62 g ai/ha
  Plant response rating (scale of 0 to 100 where 0 is no effect and 100 is complete control): 55
velvetleaf; 125 g ai/ha
  Plant response rating (scale of 0 to 100 where 0 is no effect and 100 is complete control): 60
velvetleaf; 250 g ai/ha
  Plant response rating (scale of 0 to 100 where 0 is no effect and 100 is complete control): 75
